Measured values as given in PubChem BioAssay (NCI).
Values joined by “and” are separate entries in the source; they are usually repeats but may differ in a detail not shown here. Equal entries are not always repeated.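 Tested at 5 concentrations; 48 h exposure; 96-well plates; endpoints linearly interpolated, else capped at highest concentration. The concentration for 50% growth inhibition is given as GI50. At the TGI there is no net growth.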

Legend:
Experiment in all cases: NCI tumour cell line growth inhibition, 48 h
MOLT-4 leukemia = test system: MOLT-4 leukemia
HOP-62 NSCLC = test system: HOP-62 NSCLC
SN12C renal = test system: SN12C renal
CAKI-1 renal = test system: CAKI-1 renal
OVCAR-5 ovarian = test system: OVCAR-5 ovarian
NCI-H460 lung = test system: NCI-H460 lung
RPMI-8226 leukemia = test system: RPMI-8226 leukemia
SK-MEL-2 melanoma = test system: SK-MEL-2 melanoma
BT-549 breast = test system: BT-549 breast
PC-3 prostate = test system: PC-3 prostate

Row | SMILES | TGI (MOLT-4 leukemia) [µM] | TGI (HOP-62 NSCLC) [µM] | TGI (SN12C renal) [µM] | TGI (CAKI-1 renal) [µM] | TGI (OVCAR-5 ovarian) [µM] | TGI (NCI-H460 lung) [µM] | TGI (RPMI-8226 leukemia) [µM] | TGI (SK-MEL-2 melanoma) [µM] | GI50 (MOLT-4 leukemia) [µM] | GI50 (BT-549 breast) [µM] | TGI (BT-549 breast) | GI50 (HOP-62 NSCLC) [µM] | GI50 (SN12C renal) | GI50 (OVCAR-5 ovarian) [µM] | GI50 (RPMI-8226 leukemia) [µM] | GI50 (SK-MEL-2 melanoma) [µM] | GI50 (PC-3 prostate) | TGI (PC-3 prostate) [µM] | GI50 (CAKI-1 renal) [µM] | GI50 (NCI-H460 lung) [µM]
1 | COc1ccccc1NC(=O)C1=C(C)NC(C)=C(C(=O)Nc2ccccc2OC)C1c1cccc2c1OCO2 | > 100 | > 100 | > 100 | > 100 | > 100 | > 100 | > 100 | > 100 | – | – | – | – | – | – | – | – | – | – | – | –
2 | COc1cc2c(c(OC)c1OC)-c1ccc(SC)c(=O)cc1C(CC(=O)Oc1cccc(C#N)c1)C2 (configuration not stated) | > 100 | > 100 | > 77.7 | > 100 | > 100 | 19.7 | 21.9 | – | – | – | – | – | – | – | – | – | – | – | – | –
3 | N/C(=N\c1nc2ccccc2s1)NC(=O)Nc1cccc2ccccc12 | > 100 | – | > 100 | – | > 100 | – | > 100 | 34 | 0.472 | 2.91 | > 100 µM | 0.406 | 0.861 µM | 0.696 | 0.418 | 0.582 | 0.318 µM | > 100 | – | –
4 | CCOC(=O)[C@H]1Nc2ccc(Cl)cc2[C@H]2c3ccccc3O[C@H]21 | > 100 | > 100 | > 100 | > 100 | > 100 | > 100 | > 100 | > 100 | – | – | – | – | – | – | – | – | – | – | – | –
5 | COC(=O)C1=Cc2c(cc(OC)c(OC)c2OC)[C@H](c2ccc(OC)c(OC)c2OC)C1C(=O)OC (some centres not stated) | > 100 | > 100 | > 100 | > 100 | > 100 | > 100 | > 100 | – | – | – | – | – | – | – | – | – | – | – | – | –
6 | Cc1cc2c(cc1Br)C1(C)CCC(C)C1(C)O2 (configuration not stated) | 35.6 | > 100 | 80.9 | > 100 | > 100 | 53.7 | 33.2 | 37.8 | – | – | – | – | – | – | – | – | – | – | – | –
7 | Clc1cc(Cl)cc(Nc2nc3ccccc3nc2-c2cccs2)c1 | > 100 | > 100 | > 100 | – | > 100 | 41.6 | > 100 | > 100 | – | – | – | – | – | – | – | – | – | – | – | –
8 | COc1ccc(-c2nc3sc4c(c3c(=O)[nH]2)CCCC4)c2ccccc12 | > 100 | – | > 100 | – | 4.59 | – | > 100 | – | – | – | 6.08 µM and 3.47 µM | 0.629 | 0.514 µM and 0.0702 µM | 0.301 | – | – | 0.343 µM and 0.0371 µM | > 100 | 0.45 | 0.381
9 | C[Si]12OCCCN(CCO1)CCO2 | > 100 | – | > 100 | > 100 | > 100 | > 100 | > 100 | > 100 | – | – | – | – | – | – | – | – | – | – | – | –
10 | CO/C(=N\N=C\c1cccc(C(F)(F)F)c1)c1ccncc1 | – | > 100 | > 100 | 9.48 | > 100 | 48.8 | 81.9 | > 100 | – | 8.78 | 68 µM | 13.2 | 16.7 µM | – | 7.15 | 22.6 | – | > 100 | – | –
11 | O=C(O)CCCNS(=O)(=O)c1ccc2ccccc2c1 | > 100 | – | > 100 | > 100 | > 100 | > 100 | > 100 | > 100 | – | – | – | – | – | – | – | – | – | – | – | –
12 | COc1cc2c3c(n(CCCNCCNCCCN)c(=O)c2cc1OC)-c1cc2c(cc1C3=O)OCO2 | – | 15.6 | 7.17 | 24.1 | 21.4 | > 100 | – | 10 | – | 15.1 | 35.2 µM | 2.88 | 1.66 µM | 3.82 | – | 2.59 | 13.2 µM | 56.3 | 5.68 | 6.41
13 | CC1=CC2CC(C)C1(C)CCc1ccoc12 (configuration not stated) | > 100 | > 100 | > 100 | > 100 | > 100 | > 100 | > 100 | > 100 | – | – | – | – | – | – | – | – | – | – | – | –
14 | CN1C(=O)C(c2c[nH]c3ccccc23)=C(c2c(-c3c[nH]c4ccccc34)[nH]c3ccccc23)C1=O | – | 11.9 | – | 4.63 | 11.3 | 15.8 | 17.5 | – | – | – | – | 2.1 | 2.64 µM | 2.85 | 3.54 | – | 3.11 µM | 17.3 | 1.48 | 3.31
15 | CC(=O)O[C@H]1CC[C@@]2(C)C(=CC[C@@H]3C2CC[C@]2(C)Nc4[nH]ncc4CC32)C1 (some centres not stated) | 35.8 | > 100 | – | > 100 | > 100 | 33.7 | 65.9 | 72.7 | – | – | – | – | – | – | – | – | – | – | – | –
16 | COc1ccc(-c2csc3c2-n2cccc2C3=O)cc1O | 6.1 | > 100 | > 100 | > 63.2 | > 100 | 13.1 | 3.16 | – | 0.132 | 0.0197 | > 100 µM | 0.0578 | 0.0365 µM | 1.5 | 0.0176 | – | 0.265 µM | > 100 | 0.0497 | 0.0375
17 | O=C(O)c1ccc(C2C3C=CC(C3)C2[N+](=O)[O-])cc1 (configuration not stated) | > 100 | > 100 | > 100 | > 100 | – | > 100 | > 100 | > 100 | – | – | – | – | – | – | – | – | – | – | – | –
18 | CC1CC2(CCC1OCc1ccccc1)OCCO2 (configuration not stated) | > 100 | > 100 | > 100 | > 100 | – | > 100 | > 100 | > 100 | – | – | – | – | – | – | – | – | – | – | – | –
19 | C=C1C(=O)O[C@H]2C[C@@H]1CCC1(C)OC1CC/C(C)=C/CC[C@H]2C (some centres not stated) | 33.5 | 34.5 | 35.5 | – | 30 | 33.1 | 41.9 | > 100 | 18 | 23.5 | 45.3 µM | 18.9 | 19 µM | 15.9 | 20.1 | 48.5 | 19.4 µM | 33.5 | – | 17.1
20 | N#C[C@H]1Nc2ccccc2[C@@H](O)C1O (some centres not stated) | > 100 | > 100 | > 100 | > 100 | > 100 | > 100 | > 100 | > 100 | – | – | – | – | – | – | – | – | – | > 100 | – | –
21 | CN(CCN(C)C(=O)CCOS(C)(=O)=O)C(=O)CCOS(C)(=O)=O | > 100 | > 100 | > 100 | > 100 | > 100 | > 100 | > 100 | > 100 | – | – | – | – | – | – | – | – | – | – | – | –
22 | OCc1ccc(Oc2c3ccccc3nc3occc23)cc1 | 47.2 | > 100 | 62.3 | 35.8 | > 100 | 68 | 65.5 | – | 21 | – | – | 30.4 | 24.5 µM | 29.5 | 20.7 | – | 31.8 µM | > 100 | 18.1 | 20.8
